For this test, the target named is T1, HEK-Blue-hTLR8 cells (Homo sapiens, UniProt Q9NR97).
T1 construct: expressed in transfected cells; host or cells: HEK-Blue-hTLR8 cells (HEK293-derived reporter line)
T1 sequence (Q9NR97 27-1041): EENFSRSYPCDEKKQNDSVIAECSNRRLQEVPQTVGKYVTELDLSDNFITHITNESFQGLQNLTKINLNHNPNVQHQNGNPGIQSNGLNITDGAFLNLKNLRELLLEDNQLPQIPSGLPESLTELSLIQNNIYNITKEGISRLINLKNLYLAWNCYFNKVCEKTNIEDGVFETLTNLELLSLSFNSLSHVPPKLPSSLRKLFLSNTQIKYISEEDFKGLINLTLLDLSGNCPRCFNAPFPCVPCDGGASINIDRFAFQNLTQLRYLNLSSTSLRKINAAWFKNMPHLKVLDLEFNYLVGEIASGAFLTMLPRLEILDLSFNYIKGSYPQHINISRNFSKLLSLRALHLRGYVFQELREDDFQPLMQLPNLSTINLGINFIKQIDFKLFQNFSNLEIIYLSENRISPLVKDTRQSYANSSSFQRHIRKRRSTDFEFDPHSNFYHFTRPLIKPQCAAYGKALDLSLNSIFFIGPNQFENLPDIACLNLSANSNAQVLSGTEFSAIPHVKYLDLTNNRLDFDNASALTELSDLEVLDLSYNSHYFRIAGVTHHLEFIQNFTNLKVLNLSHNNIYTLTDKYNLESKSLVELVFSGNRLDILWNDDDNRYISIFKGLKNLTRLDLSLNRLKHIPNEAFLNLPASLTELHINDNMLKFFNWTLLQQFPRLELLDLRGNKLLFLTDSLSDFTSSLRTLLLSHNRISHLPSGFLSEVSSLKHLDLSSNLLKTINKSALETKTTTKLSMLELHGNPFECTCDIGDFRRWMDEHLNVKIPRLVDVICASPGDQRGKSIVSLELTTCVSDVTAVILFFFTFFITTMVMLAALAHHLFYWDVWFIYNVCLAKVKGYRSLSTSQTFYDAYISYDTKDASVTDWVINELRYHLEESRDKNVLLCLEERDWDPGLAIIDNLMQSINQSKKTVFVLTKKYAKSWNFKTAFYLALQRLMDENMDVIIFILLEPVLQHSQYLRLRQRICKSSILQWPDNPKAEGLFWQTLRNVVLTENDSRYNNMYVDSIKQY
Kind of test: HEK-Blue-hTLR8 cell inhibition assay. Type of test: cell-based. The following applies: R848 3 µM, 16 h, OD 620 nm, read-out: TLR8 IC50. A digest of the protocol:
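Cells were pre-incubated 4 h, then co-treated 16 h at 37 °C with compound (10 doses, 0.5–10000 nM final) plus R848 (0.8 µM for TLR7, 3 µM for TLR8) or ODN2006 (1 µM, TLR9). Reporter OD620 gave inhibition relative to DMSO blank and agonist-only controls; IC50 came from curve fitting.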

Where only a bound is given, the exact number is not on record here.

For the molecule `N#Cc1ccc(N2C[C@]3(c4nnc(C5(F)CCNC5)o4)C[C@]3(C(F)(F)F)C2)c2cccnc12` (stereo partly drawn) [Compound 46, 5-((1S,5R)-1-(5-(3-fluoropyrrolidin-3-yl)-1,3,4-oxadiazol-2-yl)-5-(trifluoromethyl)-3-azabicyclo[3.1.0]hexan-3-yl)quinoline-8-carbonitrile], the IC50 is under 100 nM.
`CN1CCC(F)(c2nnc([C@]34CN(c5ccc(C#N)c6ncccc56)C[C@@]3(C(F)(F)F)C4)o2)C1` (stereo partly drawn) [Compound 47, 5-((1S,5R)-1-(5-(3-fluoro-1-methylpyrrolidin-3-yl)-1,3,4-oxadiazol-2-yl)-5-(trifluoromethyl)-3-azabicyclo[3.1.0]hexan-3-yl)quinoline-8-carbonitrile]: the IC50 is under 100 nM.
`CN1CC(F)(c2nnc([C@]34CN(c5ccc(C#N)c6ncccc56)C[C@@]3(C(F)(F)F)C4)o2)C1` [Compound 49, 5-((1S,5R)-1-(5-(3-fluoro-1-methylazetidin-3-yl)-1,3,4-oxadiazol-2-yl)-5-(trifluoromethyl)-3-azabicyclo[3.1.0]hexan-3-yl)quinoline-8-carbonitrile]: the half-inhibitory concentration (IC50) is under 100 nM.
Turning to `CN1CCC(c2nnc([C@]34CN(c5ccc(C#N)c6ncccc56)C[C@@]3(C(F)(F)F)C4)o2)C(F)C1` (stereo partly drawn) [Compound 50, 5-((1S,5R)-1-(5-(3-fluoro-1-methylpiperidin-4-yl)-1,3,4-oxadiazol-2-yl)-5-(trifluoromethyl)-3-azabicyclo[3.1.0]hexan-3-yl)quinoline-8-carbonitrile], the IC50 is under 100 nM.
The value for `CN(C)CCc1nnc([C@]23CN(c4ccc(C#N)c5ncccc45)C[C@@]2(C(F)(F)F)C3)o1` [Compound 51, 5-((1S,5R)-1-(5-(2-(dimethylamino)ethyl)-1,3,4-oxadiazol-2-yl)-5-(trifluoromethyl)-3-azabicyclo[3.1.0]hexan-3-yl)quinoline-8-carbonitrile] was under 100 nM; that for `N#Cc1ccc(N2C[C@]3(c4nnc(C56CCC(N)(CC5)CC6)o4)C[C@]3(C(F)(F)F)C2)c2cccnc12` [Compound 52, 5-((1S,5R)-1-(5-(4-aminobicyclo[2.2.2]octan-1-yl)-1,3,4-oxadiazol-2-yl)-5-(trifluoromethyl)-3-azabicyclo[3.1.0]hexan-3-yl)quinoline-8-carbonitrile] was under 100 nM.
With `CN(C)C12CCC(c3nnc([C@]45CN(c6ccc(C#N)c7ncccc67)C[C@@]4(C(F)(F)F)C5)o3)(CC1)CC2` [Compound 53, 5-((1S,5R)-1-(5-(4-(dimethylamino)bicyclo[2.2.2]octan-1-yl)-1,3,4-oxadiazol-2-yl)-5-(trifluoromethyl)-3-azabicyclo[3.1.0]hexan-3-yl)quinoline-8-carbonitrile] the figure was under 100 nM; with `N#Cc1ccc(N2C[C@]3(c4nnc(C56CCC(NC(=O)[C@@H]7COCCN7)(CC5)CC6)o4)C[C@]3(C(F)(F)F)C2)c2cccnc12` [Compound 54, (S)-N-(4-(5-((1S,5R)-3-(8-cyanoquinolin-5-yl)-5-(trifluoromethyl)-3-azabicyclo[3.1.0]hexan-1-yl)-1,3,4-oxadiazol-2-yl)bicyclo[2.2.2]octan-1-yl)morpholine-3-carboxamide], under 100 nM; with `N#Cc1ccc(N2C[C@]3(c4nnc([C@H]5CN(CC(N)=O)CCO5)o4)C[C@]3(C(F)(F)F)C2)c2cccnc12` [Compound 56, 2-((R)-2-(5-((1S,5R)-3-(8-cyanoquinolin-5-yl)-5-(trifluoromethyl)-3-azabicyclo[3.1.0]hexan-1-yl)-1,3,4-oxadiazol-2-yl)morpholino)acetamide], under 100 nM.
With `CN1CCC(c2nnc([C@]34CN(c5ccc(C#N)n6ncc(F)c56)C[C@@]3(C(F)(F)F)C4)o2)CC1` [Compound 57, 3-fluoro-4-((1S,5R)-1-(5-(1-methylpiperidin-4-yl)-1,3,4-oxadiazol-2-yl)-5-(trifluoromethyl)-3-azabicyclo[3.1.0]hexan-3-yl)pyrazolo[1,5-a]pyridine-7-carbonitrile] the figure was under 100 nM; with `CN1CCC(c2nnc([C@]34CN(c5ccc(C#N)n6nccc56)C[C@@]3(C(F)(F)F)C4)o2)CC1` [Compound 59, 4-((1S,5R)-1-(5-(1-methylpiperidin-4-yl)-1,3,4-oxadiazol-2-yl)-5-(trifluoromethyl)-3-azabicyclo[3.1.0]hexan-3-yl)pyrazolo[1,5-a]pyridine-7-carbonitrile], under 1000 nM.
In the case of `N#Cc1ccc(N2C[C@]3(c4nnc(C5(F)CCNCC5)o4)C[C@]3(C(F)(F)F)C2)c2cccnc12` [Compound 60, 5-((1S,5R)-1-(5-(4-fluoropiperidin-4-yl)-1,3,4-oxadiazol-2-yl)-5-(trifluoromethyl)-3-azabicyclo[3.1.0]hexan-3-yl)quinoline-8-carbonitrile], the IC50 is under 100 nM.
On to `CN1CCC(c2nnc([C@]34CN(c5ccc(OC(F)(F)F)c6ncccc56)C[C@@]3(C(F)(F)F)C4)o2)CC1` [Compound 64, 2-(1-methylpiperidin-4-yl)-5-((1S,5R)-5-(trifluoromethyl)-3-(8-(trifluoromethoxy)quinolin-5-yl)-3-azabicyclo[3.1.0]hexan-1-yl)-1,3,4-oxadiazole], for which the IC50 is under 100 nM.
The value for `COc1ccc(N2C[C@]3(c4nnc(C5CCN(C)CC5)o4)C[C@]3(C(F)(F)F)C2)c2cccnc12` [Compound 66, 2-((1S,5R)-3-(8-methoxyquinolin-5-yl)-5-(trifluoromethyl)-3-azabicyclo[3.1.0]hexan-1-yl)-5-(1-methylpiperidin-4-yl)-1,3,4-oxadiazole] was under 100 nM.
Take `CN1CCC(n2cc([C@]34CN(c5ccc(C#N)c6ncccc56)C[C@@]3(C(F)(F)F)C4)nn2)CC1` [Compound 71, 5-((1S,5R)-1-(1-(1-methylpiperidin-4-yl)-1H-1,2,3-triazol-4-yl)-5-(trifluoromethyl)-3-azabicyclo[3.1.0]hexan-3-yl)quinoline-8-carbonitrile]: the half-inhibitory concentration (IC50) was under 100 nM.
With `FC(F)(F)c1ccc(N2C[C@]3(c4nnc(C5CCNCC5)o4)C[C@]3(C(F)(F)F)C2)c2cccnc12` [Compound 75, 2-(piperidin-4-yl)-5-((1S,5R)-5-(trifluoromethyl)-3-(8-(trifluoromethyl)quinolin-5-yl)-3-azabicyclo[3.1.0]hexan-1-yl)-1,3,4-oxadiazole] the figure was under 100 nM; with `FC(F)(F)c1ccc(N2C[C@]3(c4nnc(C5CCN(CC6CC6)CC5)o4)C[C@]3(C(F)(F)F)C2)c2cccnc12` [Compound 76, 2-(1-(cyclopropylmethyl)piperidin-4-yl)-5-((1S,5R)-5-(trifluoromethyl)-3-(8-(trifluoromethyl)quinolin-5-yl)-3-azabicyclo[3.1.0]hexan-1-yl)-1,3,4-oxadiazole], under 100 nM.
For `NC(=O)CN1CCC(c2nnc([C@]34CN(c5ccc(C(F)(F)F)c6ncccc56)C[C@@]3(C(F)(F)F)C4)o2)CC1` [Compound 77, 2-(4-(5-((1S,5R)-5-(trifluoromethyl)-3-(8-(trifluoromethyl)quinolin-5-yl)-3-azabicyclo[3.1.0]hexan-1-yl)-1,3,4-oxadiazol-2-yl)piperidin-1-yl)acetamide], the half-maximal inhibitory concentration (IC50) is under 100 nM.
Consider `CN1[C@@H]2CC[C@H]1C[C@H](c1nnc([C@]34CN(c5ccc(C(F)(F)F)c6ncccc56)C[C@@]3(C(F)(F)F)C4)o1)C2` [Compound 79, 2-((1R,3S,5S)-8-methyl-8-azabicyclo[3.2.1]octan-3-yl)-5-((1S,5R)-5-(trifluoromethyl)-3-(8-(trifluoromethyl)quinolin-5-yl)-3-azabicyclo[3.1.0]hexan-1-yl)-1,3,4-oxadiazole], for which the IC50 was under 100 nM.
Regarding `N#Cc1ccc(N2C[C@]3(c4nnc(C5CCNCC5)o4)C[C@]3(C(F)(F)F)C2)c2c(F)cnn12` [Compound 80, 3-fluoro-4-((1S,5R)-1-(5-(piperidin-4-yl)-1,3,4-oxadiazol-2-yl)-5-(trifluoromethyl)-3-azabicyclo[3.1.0]hexan-3-yl)pyrazolo[1,5-a]pyridine-7-carbonitrile], the IC50 was under 100 nM.
The value for `NC12CCC(c3nnc([C@]45CN(c6ccc(C(F)(F)F)c7ncccc67)C[C@@]4(C(F)(F)F)C5)o3)(CC1)CC2` [Compound 81, 4-(5-((1S,5R)-5-(trifluoromethyl)-3-(8-(trifluoromethyl)quinolin-5-yl)-3-azabicyclo[3.1.0]hexan-1-yl)-1,3,4-oxadiazol-2-yl)bicyclo[2.2.2]octan-1-amine] was under 100 nM.

The values are drawn from patent EP4806891A1 (Kangbaida (Sichuan) Biotechnology Co., Ltd., priority 2023, dated 2025).
